The nature of data set [1]: Acute toxicity, LD50 in mice (method of Litchfield and Wilcoxon), intravenous route. The note with it: in vivo. The protocol: LD50 values in mice for several compounds of the invention were obtained by the method of Litchfield and Wilcoxon (J. Pharmacol. (1949), 96.99) after the administration of the test compound by intravenous route (i.v.) in the mouse (CD, males 18-24 g) in a volume of 0.40 ml/20 g of body weight. The mortality is noted 7 days after administration.

Data set [2] deals with isolated ileum of the guinea pig. As to the kind of experiment: Spasmolytic activity in vitro, barium chloride contraction of isolated ileum. The class given is cell-based. The note with it: Cavia porcellus, Tyrode liquid, 37° C., barium chloride as contracting agent, product added 30 seconds before, read-out: EC50 (concentration required to cause inhibition of contraction in 50% of the population). The protocol: The tests are carried out on isolated ileum of the guinea pig surviving in Tyrode liquid, aerated and maintained at 37° C. The products are added 30 seconds before affusion of barium chloride used as contracting agent. The concentrations required to cause inhibition of contraction in 50% of the population (EC50) was given in table II compared with papaverine.

Data set [3] deals with dogs anaesthetized with chloralose. Put plainly: Cardiovascular activity in anaesthetized dogs. The class given is in vivo, dog. The note with it: i.v., 1/15 to 1/30 of the mouse i.v. LD50. As for the experimental part:
The following parameters were recorded in dogs anaesthetized with chloralose, and under artificial respiration:
left ventricular contractile force.
The compounds tested were injected intravenously in a dose of from (1/15) to (1/30) of the LD50 (i.v.) previoulsy determined in mice.

Setting [4] is: mouse, read-out: LD50 and limits (p = 0.05).
Setting [5] is: mouse CD males, i.v., 0.40 ml/20 g, mortality noted 7 days after administration, limits p = 0.05 in brackets.

The text below walks through data of patent US4442108A, “Hydrogenated isoquinolines and peripheral vascular disease treating compositions thereof” (Laboratoires Sobio S.A. of Immeuble Perisud, priority 1981, dated 1984).

Structures can show the parent of a compound that is named as a salt. Where two headings read alike, the source gives them in different places.

One may read the LD50 as the dose at which mortality reaches 50%. For `CCOc1ccc(CC2=NCCc3cc(OC(C)C)c(OC(C)C)cc32)cc1OCC` [Example 2, 1-(3'4'-Diethoxybenzyl)-6,7-diisopropoxy-3,4-dihydroisoquinoline hydrochloride], the LD50 at 168 h in data set [1] (setting [4]) was 8.2 mg/kg. In data set [2], the EC50 worked out at 4.2 µM. Further, in data set [3], the “effect on blood pressure (mean aortic pressure)” value (“effect on blood pressure” for short) was “transient hypotension” and the “effect on left ventricular contractile force” value is “reduction in the amplitude of ventricular contraction”.

Consider `COc1ccc(Cc2nccc3cc(OC)c(OC)cc23)cc1OC` [Papauerine HCl, reference compound], for which the EC50 in data set [2] turned out to be 980 µM.

In turn, `CCOc1cc2c(cc1OCC)C(Cc1ccc(OC(C)C)c(OC(C)C)c1)NCC2` (centres unmarked) [Example 11, 6,7-Diethoxy-1-(3',4'-diisopropoxybenzyl)-1,2,3,4-tetrahydroisoquinoline hydrochloride] had an LD50 at 168 h in data set [1] (setting [5]) of 22 mg/kg. In addition, the EC50 in data set [2] turned out to be 60 µM.

Consider `COc1ccc(Cc2nccc3cc(OC)c(OC)cc23)cc1OC` [papaverine, 1-(3',4'-dimethoxybenzyl)-6,7-dimethoxy isoquinoline, reference compound], for which, in data set [3], the “effect on blood pressure” value was “transient hypotension”, the “effect on cardiac frequency” value is given as “tachycardia” and the “effect on left ventricular contractile force” value is recorded as “increase of the ventricular contractile force”.

Regarding `CCOc1ccc(CC2NCCc3cc(OC(C)C)c(OC(C)C)cc32)cc1OCC.Cl` (centres unmarked) [Example 10, 1-(3',4'-Diethoxybenzyl)-6,7-diisopropoxy-1,2,3,4-tetrahydroisoquinoline hydrochloride], in data set [1] (setting [5]), the LD50 at 168 h was 19 mg/kg. Moreover, the EC50 in data set [2] turned out to be 10 µM. Moreover, in data set [3], the “effect on blood pressure” value is on record as “transient hypotension” and the “effect on left ventricular contractile force” value was “reduction in the amplitude of ventricular contraction”.

As for `CCCOc1ccc(CC2=NCCc3cc(OCC)c(OCC)cc32)cc1OCCC.Cl` [Example 3, 6,7-Diethoxy-1-(3',4'-di-n-propoxybenzyl)-3,4-dihydroisoquinoline hydrochloride], in data set [1] (setting [5]), the LD50 at 168 h stood at 17.5 mg/kg. Further, the EC50 in data set [2] was 3.2 µM. Besides, in data set [3], the “effect on blood pressure” value was “transient hypotension” and the “effect on left ventricular contractile force” value is “reduction in the amplitude of ventricular contraction”.

On to `CCCOc1cc2c(cc1OCCC)C(Cc1ccc(OCC)c(OCC)c1)=NCC2.Cl` [Example 4, 1-(3',4'-Diethoxybenzyl)-6,7-di-n-propoxy-3,4-dihydroisoquinoline hydrochloride], for which the LD50 at 168 h in data set [1] (setting [5]) was 13.5 mg/kg. Moreover, in data set [2], the EC50 turned out to be 3.7 µM. In addition, in data set [3], the “effect on blood pressure” value is “transient hypotension” and the “effect on left ventricular contractile force” value is “reduction in the amplitude of ventricular contraction”.

Regarding `CCOc1cc2c(cc1OCC)C(Cc1ccc(OC(C)C)c(OC(C)C)c1)=NCC2` [Example 1, 6,7-Diethoxy-1-(3'4'-diisopropoxybenzyl-3,4-dihydroisoquinoline hydrochloride], the 50% lethal dose (LD50) at 168 h in data set [1] (setting [4]) was determined as 19 mg/kg. The EC50 in data set [2] turned out to be 11 µM. In data set [3], the “effect on blood pressure” value is “transient hypotension” and the “effect on left ventricular contractile force” value was “reduction in the amplitude of ventricular contraction”.
